# Experimental data taken from US20240426832A1, “METHODS OF IDENTIFYING COMPOUNDS FOR INDUCING PROTEIN-PROTEIN INTERACTION” (Oncopia Therapeutics, Inc. d/b/a/ SK Life Science Labs, priority 2023, published 2024).
# Legend:
# RBM39 and DCAF15 = RBM39 and DCAF15 (Homo sapiens, UniProt Q14498+Q66K64); settings: stated as known; cited from earlier work
# IKZF2-CRBN [1] = target: T1, IKZF2-CRBN (Homo sapiens, UniProt Q96SW2+Q9UKS7); settings: stated as known; cited from earlier work
# IKZF2-CRBN [2] = target: T1, IKZF2-CRBN; experiment: glue screening assay (tripartite split-GFP fluorescence), GFP11-tagged IKZF2 and GFP10-tagged CRBN; format: binding; settings: protein mix GFP1-9, GFP11-IKZF2, IKZF2-GFP11, GFP10-CRBN, time-course, FIG. 5
# Method: In another version of the assay, the glue screening assay mixture is assembled in a volume of 2 μL assay buffer (50 mM HEPES buffer, pH 7.5, 150 mM KCl, 4 mM DTT, 0.1 mg/mL BSA, 0.25 mM octyl-beta-glucopyranoside, 5% glycerol with 0.3 μg GFP1-9, 0.05 μg of GFP11-tagged IKZF2, and 0.3 μg GFP10-tagged CRBN. Various variations of the buffer provide consistent signal in this assay (0.1-1 mg/mL BSA, 0-10% glycerol, 0-1 mM octyl-beta-glucopyranoside). Similar to the previous version, two different versions of GFP11-tagged IKZF2 are tested with GFP11 fused to N- and C-termini of IKZF2 (GFP11-IKZF2 and IKZF2-GFP11, respectively). Likewise, two different versions of GFP10-tagged CRBN are tested: GFP10 fused to the N-terminus of CRBN (GFP10-CRBN) and GFP10 fused to the C-terminus of CRBN (CRBN-GFP10). Concentrations correspond to 5 μM of GFP (1-9), 1.25 μM of each of the IKZF2 constructs and 0.5 μM of each of the two CRBN constructs. Concentrations of the IKZF2 and CRBN proteins were optimized for best signal to background by titrating the proteins against each other.
# For primary screens, these five different proteins (GFP1-9, GFP11-IKZF2, IKZF2-GFP11, GFP10-CRBN, and CRBN-GFP10) are combined in the assay buffer and added to the plates containing different compound pools. […]
# T1 sequence (Q9UKS7 whole entry): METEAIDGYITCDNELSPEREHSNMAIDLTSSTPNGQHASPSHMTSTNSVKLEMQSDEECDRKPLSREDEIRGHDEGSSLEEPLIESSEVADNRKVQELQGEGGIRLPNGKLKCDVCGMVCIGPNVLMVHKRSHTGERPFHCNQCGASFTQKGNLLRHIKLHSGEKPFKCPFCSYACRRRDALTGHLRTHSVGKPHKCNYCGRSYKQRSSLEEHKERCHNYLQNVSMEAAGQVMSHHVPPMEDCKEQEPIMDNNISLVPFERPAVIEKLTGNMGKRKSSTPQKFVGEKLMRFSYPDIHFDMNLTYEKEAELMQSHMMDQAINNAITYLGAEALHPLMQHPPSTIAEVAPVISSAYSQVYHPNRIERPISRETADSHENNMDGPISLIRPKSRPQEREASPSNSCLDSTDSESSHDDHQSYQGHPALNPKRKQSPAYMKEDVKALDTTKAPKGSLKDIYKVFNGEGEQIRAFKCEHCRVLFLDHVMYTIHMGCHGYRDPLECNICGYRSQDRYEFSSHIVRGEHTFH
# T1 sequence (Q96SW2 whole entry): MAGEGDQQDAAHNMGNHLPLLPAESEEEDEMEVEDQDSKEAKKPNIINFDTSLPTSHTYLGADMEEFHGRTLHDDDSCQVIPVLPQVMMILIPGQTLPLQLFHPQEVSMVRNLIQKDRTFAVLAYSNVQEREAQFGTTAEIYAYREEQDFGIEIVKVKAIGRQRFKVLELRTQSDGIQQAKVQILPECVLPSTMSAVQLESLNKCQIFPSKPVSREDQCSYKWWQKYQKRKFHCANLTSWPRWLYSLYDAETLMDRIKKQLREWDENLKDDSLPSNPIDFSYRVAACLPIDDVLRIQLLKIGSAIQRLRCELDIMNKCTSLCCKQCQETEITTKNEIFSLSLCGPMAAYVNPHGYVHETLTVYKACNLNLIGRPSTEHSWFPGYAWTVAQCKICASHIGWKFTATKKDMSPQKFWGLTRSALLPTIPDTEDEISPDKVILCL
# Sequence of RBM39 and DCAF15 (Q14498 whole entry, species assumed): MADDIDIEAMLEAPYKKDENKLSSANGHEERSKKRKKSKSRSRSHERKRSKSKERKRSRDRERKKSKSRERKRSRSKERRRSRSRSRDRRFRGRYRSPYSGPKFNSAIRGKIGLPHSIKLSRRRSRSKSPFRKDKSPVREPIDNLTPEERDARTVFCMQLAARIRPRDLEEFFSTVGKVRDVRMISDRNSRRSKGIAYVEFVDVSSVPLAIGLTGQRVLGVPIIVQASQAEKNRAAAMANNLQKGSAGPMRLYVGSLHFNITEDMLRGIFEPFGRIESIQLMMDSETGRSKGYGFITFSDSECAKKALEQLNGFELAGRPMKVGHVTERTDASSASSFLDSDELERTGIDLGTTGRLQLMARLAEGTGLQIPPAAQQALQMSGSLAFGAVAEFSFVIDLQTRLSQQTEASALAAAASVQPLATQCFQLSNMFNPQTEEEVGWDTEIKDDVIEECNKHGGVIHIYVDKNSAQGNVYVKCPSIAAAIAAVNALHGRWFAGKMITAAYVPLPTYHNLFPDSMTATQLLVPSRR
# Sequence of RBM39 and DCAF15 (Q66K64 whole entry, species assumed): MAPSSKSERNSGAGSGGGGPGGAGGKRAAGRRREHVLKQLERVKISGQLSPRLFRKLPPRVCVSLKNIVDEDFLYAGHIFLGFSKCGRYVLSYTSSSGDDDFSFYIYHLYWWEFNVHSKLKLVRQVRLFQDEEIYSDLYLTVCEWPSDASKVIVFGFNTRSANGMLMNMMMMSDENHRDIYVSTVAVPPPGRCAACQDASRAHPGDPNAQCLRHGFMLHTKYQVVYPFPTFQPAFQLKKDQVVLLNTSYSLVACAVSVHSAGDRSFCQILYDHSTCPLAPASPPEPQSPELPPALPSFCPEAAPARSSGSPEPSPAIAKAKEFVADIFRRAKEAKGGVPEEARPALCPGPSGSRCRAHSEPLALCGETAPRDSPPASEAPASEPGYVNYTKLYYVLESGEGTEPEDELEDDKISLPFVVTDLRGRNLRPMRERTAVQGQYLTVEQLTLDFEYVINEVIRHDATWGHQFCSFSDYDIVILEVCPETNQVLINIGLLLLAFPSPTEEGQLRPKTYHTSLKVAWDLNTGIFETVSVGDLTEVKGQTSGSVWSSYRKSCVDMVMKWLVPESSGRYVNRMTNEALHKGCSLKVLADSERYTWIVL
SMILES,glue activity for protein pair RBM39 and DCAF15 (known) (RBM39 and DCAF15),glue activity for IKZF2-CRBN protein pair (known) (IKZF2-CRBN [1]),GFP signal over time compared to the DMSO control (IKZF2-CRBN [2])
Nc1ccc(S(=O)(=O)Nc2cnc3c(Cl)cccc3n2)cc1,known glues,devoid of glue activity,indistinguishable from the DMSO control
NS(=O)(=O)c1ccc(S(=O)(=O)Nc2cccc3c(Cl)c[nH]c23)cc1 [Indisulam],known glues,devoid of glue activity,indistinguishable from the DMSO control
